According to the supplement of paper PMC10307832:

Key:
Experiment in all cases: relative viability (nuclei count vs DMSO), 5 days (fraction); higher = more cells survive
Kobe2602 + OSI-027 = compound: C1=CC(=CC=C1NC(=S)NNC2=C(C=C(C=C2[N+](=O)[O-])C(F)(F)F)[N+](=O)[O-])F [Kobe2602] + COc1cccc2cc(-c3nc([C@H]4CC[C@H](C(=O)O)CC4)n4ncnc(N)c34)[nH]c12 [OSI-027] (partner 0.5 µM)
Procedure, shortened: (§1)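 Relative viability is defined as nuclei in treated wells over nuclei in vehicle wells. Duplicate plates were run and medians reported. Lung cancer cell lines in 1536-well plates were dosed by pin tool one day after seeding, with one drug or with a fixed anchor-drug dose plus five library-drug doses (not always all listed) in √10 steps, and nuclei were counted after 5 days.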

Kobe2602 + Phenformin = compound: C1=CC(=CC=C1NC(=S)NNC2=C(C=C(C=C2[N+](=O)[O-])C(F)(F)F)[N+](=O)[O-])F [Kobe2602] + N=C(N)NC(=N)NCCc1ccccc1 [Phenformin] (partner 250 µM)
Procedure, shortened: as §1

[1] = compound: COc1cc2nccc(Oc3ccc(NC(=O)C4(C(=O)Nc5ccc(F)cc5)CC4)cc3)c2cc1OC [Cabozantinib] + CC(C)C[C@H](NC(=O)[C@H](Cc1ccccc1)NC(=O)c1cnccn1)B(O)O [Bortezomib] (partner 0.002 µM)
Procedure, shortened: as §1

Zosuquidar + Bortezomib = compound: O[C@@H](COc1cccc2ncccc12)CN1CCN([C@@H]2c3ccccc3[C@@H]3[C@H](c4ccccc42)C3(F)F)CC1 [Zosuquidar] + CC(C)C[C@H](NC(=O)[C@H](Cc1ccccc1)NC(=O)c1cnccn1)B(O)O [Bortezomib] (partner 0.002 µM)
Procedure, shortened: as §1

## NCI-H647
Kobe2602 + OSI-027; first compound 0.2 µM
  relative viability: 0.647
Kobe2602 + OSI-027; first compound 0.6325 µM
  relative viability: 0.751
Kobe2602 + OSI-027; first compound 2 µM
  relative viability: 0.57
Kobe2602 + OSI-027; first compound 6.325 µM
  relative viability: 0.841
Kobe2602 + OSI-027; first compound 20 µM
  relative viability: 0.639
Kobe2602 + Phenformin; first compound 0.2 µM
  relative viability: 0.554
Kobe2602 + Phenformin; first compound 0.6325 µM
  relative viability: 0.549
Kobe2602 + Phenformin; first compound 2 µM
  relative viability: 0.655
Kobe2602 + Phenformin; first compound 6.325 µM
  relative viability: 0.481
Kobe2602 + Phenformin; first compound 20 µM
  relative viability: 0.441
[1]; first compound 0.02 µM
  relative viability: 1.17
[1]; first compound 0.06325 µM
  relative viability: 1.17
[1]; first compound 0.2 µM
  relative viability: 1.19
[1]; first compound 0.6325 µM
  relative viability: 0.893
[1]; first compound 2 µM
  relative viability: 1.13
Zosuquidar + Bortezomib; first compound 0.01 µM
  relative viability: 1.01
Zosuquidar + Bortezomib; first compound 0.03162 µM
  relative viability: 0.882
Zosuquidar + Bortezomib; first compound 0.1 µM
  relative viability: 1.27
Zosuquidar + Bortezomib; first compound 0.3162 µM
  relative viability: 1.1
Zosuquidar + Bortezomib; first compound 1 µM
  relative viability: 0.996

## NCI-H650
Kobe2602 + OSI-027; first compound 0.2 µM
  relative viability: 0.514
Kobe2602 + OSI-027; first compound 0.6325 µM
  relative viability: 0.593
Kobe2602 + OSI-027; first compound 2 µM
  relative viability: 0.477
Kobe2602 + OSI-027; first compound 6.325 µM
  relative viability: 0.529
Kobe2602 + OSI-027; first compound 20 µM
  relative viability: 0.527
Kobe2602 + Phenformin; first compound 0.2 µM
  relative viability: 0.454
Kobe2602 + Phenformin; first compound 0.6325 µM
  relative viability: 0.538
Kobe2602 + Phenformin; first compound 2 µM
  relative viability: 0.471
Kobe2602 + Phenformin; first compound 6.325 µM
  relative viability: 0.457
Kobe2602 + Phenformin; first compound 20 µM
  relative viability: 0.452
[1]; first compound 0.02 µM
  relative viability: 0.691
[1]; first compound 0.06325 µM
  relative viability: 0.998
[1]; first compound 0.2 µM
  relative viability: 0.861
[1]; first compound 0.6325 µM
  relative viability: 0.737
[1]; first compound 2 µM
  relative viability: 0.627
Zosuquidar + Bortezomib; first compound 0.01 µM
  relative viability: 0.858
Zosuquidar + Bortezomib; first compound 0.03162 µM
  relative viability: 0.863
Zosuquidar + Bortezomib; first compound 0.3162 µM
  relative viability: 1.01
Zosuquidar + Bortezomib; first compound 1 µM
  relative viability: 0.919

## NCI-H661
Kobe2602 + OSI-027; first compound 0.2 µM
  relative viability: 0.691
Kobe2602 + OSI-027; first compound 0.6325 µM
  relative viability: 0.71
Kobe2602 + OSI-027; first compound 2 µM
  relative viability: 0.731
Kobe2602 + OSI-027; first compound 6.325 µM
  relative viability: 0.8
Kobe2602 + OSI-027; first compound 20 µM
  relative viability: 0.672
Kobe2602 + Phenformin; first compound 0.2 µM
  relative viability: 0.273
Kobe2602 + Phenformin; first compound 0.6325 µM
  relative viability: 0.277
Kobe2602 + Phenformin; first compound 2 µM
  relative viability: 0.261
Kobe2602 + Phenformin; first compound 6.325 µM
  relative viability: 0.298
Kobe2602 + Phenformin; first compound 20 µM
  relative viability: 0.298
[1]; first compound 0.02 µM
  relative viability: 0.799
[1]; first compound 0.06325 µM
  relative viability: 0.855
[1]; first compound 0.2 µM
  relative viability: 0.915
[1]; first compound 0.6325 µM
  relative viability: 0.683
[1]; first compound 2 µM
  relative viability: 0.799
Zosuquidar + Bortezomib; first compound 0.01 µM
  relative viability: 0.875
Zosuquidar + Bortezomib; first compound 0.03162 µM
  relative viability: 0.702
Zosuquidar + Bortezomib; first compound 0.1 µM
  relative viability: 0.628
Zosuquidar + Bortezomib; first compound 0.3162 µM
  relative viability: 1.12
Zosuquidar + Bortezomib; first compound 1 µM
  relative viability: 0.949

## NCI-H727
Kobe2602 + OSI-027; first compound 0.2 µM
  relative viability: 0.57
Kobe2602 + OSI-027; first compound 0.6325 µM
  relative viability: 0.604
Kobe2602 + OSI-027; first compound 2 µM
  relative viability: 0.744
Kobe2602 + OSI-027; first compound 6.325 µM
  relative viability: 0.545
Kobe2602 + OSI-027; first compound 20 µM
  relative viability: 0.888
Kobe2602 + Phenformin; first compound 0.2 µM
  relative viability: 0.594
Kobe2602 + Phenformin; first compound 0.6325 µM
  relative viability: 0.559
Kobe2602 + Phenformin; first compound 2 µM
  relative viability: 0.535
Kobe2602 + Phenformin; first compound 6.325 µM
  relative viability: 0.52
Kobe2602 + Phenformin; first compound 20 µM
  relative viability: 0.633
[1]; first compound 0.02 µM
  relative viability: 0.704
[1]; first compound 0.06325 µM
  relative viability: 0.901
[1]; first compound 0.2 µM
  relative viability: 0.718
[1]; first compound 0.6325 µM
  relative viability: 0.819
[1]; first compound 2 µM
  relative viability: 0.947
Zosuquidar + Bortezomib; first compound 0.01 µM
  relative viability: 0.876
Zosuquidar + Bortezomib; first compound 0.03162 µM
  relative viability: 0.938
Zosuquidar + Bortezomib; first compound 0.1 µM
  relative viability: 0.708
Zosuquidar + Bortezomib; first compound 0.3162 µM
  relative viability: 0.787
Zosuquidar + Bortezomib; first compound 1 µM
  relative viability: 0.828

## NCI-H838
Kobe2602 + OSI-027; first compound 0.2 µM
  relative viability: 0.427
Kobe2602 + OSI-027; first compound 0.6325 µM
  relative viability: 0.433
Kobe2602 + OSI-027; first compound 2 µM
  relative viability: 0.397
Kobe2602 + OSI-027; first compound 6.325 µM
  relative viability: 0.417
Kobe2602 + OSI-027; first compound 20 µM
  relative viability: 0.371
Kobe2602 + Phenformin; first compound 0.2 µM
  relative viability: 0.549
Kobe2602 + Phenformin; first compound 0.6325 µM
  relative viability: 0.71
Kobe2602 + Phenformin; first compound 2 µM
  relative viability: 0.574
Kobe2602 + Phenformin; first compound 6.325 µM
  relative viability: 0.577
Kobe2602 + Phenformin; first compound 20 µM
  relative viability: 0.554
[1]; first compound 0.02 µM
  relative viability: 0.746
[1]; first compound 0.06325 µM
  relative viability: 0.95
[1]; first compound 0.2 µM
  relative viability: 0.941
[1]; first compound 0.6325 µM
  relative viability: 0.685
[1]; first compound 2 µM
  relative viability: 1.04
Zosuquidar + Bortezomib; first compound 0.01 µM
  relative viability: 0.824
Zosuquidar + Bortezomib; first compound 0.03162 µM
  relative viability: 0.605
Zosuquidar + Bortezomib; first compound 0.1 µM
  relative viability: 0.749
Zosuquidar + Bortezomib; first compound 0.3162 µM
  relative viability: 0.813
Zosuquidar + Bortezomib; first compound 1 µM
  relative viability: 0.884

## NCI-H1355
Kobe2602 + OSI-027; first compound 0.2 µM
  relative viability: 0.395
Kobe2602 + OSI-027; first compound 0.6325 µM
  relative viability: 0.389
Kobe2602 + OSI-027; first compound 2 µM
  relative viability: 0.411
Kobe2602 + OSI-027; first compound 6.325 µM
  relative viability: 0.41
Kobe2602 + OSI-027; first compound 20 µM
  relative viability: 0.441
Kobe2602 + Phenformin; first compound 0.2 µM
  relative viability: 0.479
Kobe2602 + Phenformin; first compound 0.6325 µM
  relative viability: 0.479
Kobe2602 + Phenformin; first compound 2 µM
  relative viability: 0.476
Kobe2602 + Phenformin; first compound 6.325 µM
  relative viability: 0.415
Kobe2602 + Phenformin; first compound 20 µM
  relative viability: 0.433
[1]; first compound 0.02 µM
  relative viability: 1.05
[1]; first compound 0.06325 µM
  relative viability: 1.29
[1]; first compound 0.2 µM
  relative viability: 1.12
[1]; first compound 0.6325 µM
  relative viability: 1.23
[1]; first compound 2 µM
  relative viability: 1.18
Zosuquidar + Bortezomib; first compound 0.01 µM
  relative viability: 1.15
Zosuquidar + Bortezomib; first compound 0.03162 µM
  relative viability: 1.26
Zosuquidar + Bortezomib; first compound 0.1 µM
  relative viability: 1.1
Zosuquidar + Bortezomib; first compound 0.3162 µM
  relative viability: 1.33
Zosuquidar + Bortezomib; first compound 1 µM
  relative viability: 1.24

## NCI-H1437
Kobe2602 + OSI-027; first compound 0.2 µM
  relative viability: 0.913
Kobe2602 + OSI-027; first compound 0.6325 µM
  relative viability: 0.913
Kobe2602 + OSI-027; first compound 2 µM
  relative viability: 0.891
Kobe2602 + OSI-027; first compound 6.325 µM
  relative viability: 0.949
Kobe2602 + OSI-027; first compound 20 µM
  relative viability: 0.855
Kobe2602 + Phenformin; first compound 0.2 µM
  relative viability: 0.335
Kobe2602 + Phenformin; first compound 0.6325 µM
  relative viability: 0.282
Kobe2602 + Phenformin; first compound 2 µM
  relative viability: 0.279
Kobe2602 + Phenformin; first compound 6.325 µM
  relative viability: 0.297
Kobe2602 + Phenformin; first compound 20 µM
  relative viability: 0.352
[1]; first compound 0.02 µM
  relative viability: 0.533
[1]; first compound 0.06325 µM
  relative viability: 0.635
[1]; first compound 0.2 µM
  relative viability: 0.549
[1]; first compound 0.6325 µM
  relative viability: 0.565
[1]; first compound 2 µM
  relative viability: 0.64
Zosuquidar + Bortezomib; first compound 0.01 µM
  relative viability: 0.468
Zosuquidar + Bortezomib; first compound 0.03162 µM
  relative viability: 0.442
Zosuquidar + Bortezomib; first compound 0.1 µM
  relative viability: 0.475
Zosuquidar + Bortezomib; first compound 0.3162 µM
  relative viability: 0.53
Zosuquidar + Bortezomib; first compound 1 µM
  relative viability: 0.463

## NCI-H1563
Kobe2602 + OSI-027; first compound 0.2 µM
  relative viability: 0.721
Kobe2602 + OSI-027; first compound 0.6325 µM
  relative viability: 0.743
Kobe2602 + OSI-027; first compound 2 µM
  relative viability: 0.797
Kobe2602 + OSI-027; first compound 6.325 µM
  relative viability: 0.757
Kobe2602 + OSI-027; first compound 20 µM
  relative viability: 0.754
Kobe2602 + Phenformin; first compound 0.2 µM
  relative viability: 0.684
Kobe2602 + Phenformin; first compound 0.6325 µM
  relative viability: 0.719
Kobe2602 + Phenformin; first compound 2 µM
  relative viability: 0.675
Kobe2602 + Phenformin; first compound 6.325 µM
  relative viability: 0.668
Kobe2602 + Phenformin; first compound 20 µM
  relative viability: 0.676
[1]; first compound 0.02 µM
  relative viability: 0.92
[1]; first compound 0.06325 µM
  relative viability: 0.875
[1]; first compound 0.2 µM
  relative viability: 0.904
[1]; first compound 0.6325 µM
  relative viability: 0.824
[1]; first compound 2 µM
  relative viability: 1.08
Zosuquidar + Bortezomib; first compound 0.01 µM
  relative viability: 0.842
Zosuquidar + Bortezomib; first compound 0.03162 µM
  relative viability: 0.882
Zosuquidar + Bortezomib; first compound 0.1 µM
  relative viability: 0.807
Zosuquidar + Bortezomib; first compound 0.3162 µM
  relative viability: 1.04
Zosuquidar + Bortezomib; first compound 1 µM
  relative viability: 0.858
